Test [1] concerns Salmonella enterica subsp. enterica ATCC 14028. Briefly: Colistin broth microdilution MIC with potentiator compounds (Example 1). Conditions: S. enterica ATCC 14028; MIC in the presence of 1.0% DMSO / MIC in the presence of 0.1 mM potentiator compound and 1.0% DMSO; positive = increased, negative = decreased susceptibility, 1 = no effect. Format: cell-based. For orientation: Dilution methods test growth across graded concentrations, often in twofold steps.

Test [2] deals with Acinetobacter baumannii ATCC 15308. The test is described as above. In kind it is cell-based. The conditions noted are these: A. baumannii ATCC 15308; MIC in the presence of 1.0% DMSO / MIC in the presence of 0.1 mM potentiator compound and 1.0% DMSO; positive = increased, negative = decreased susceptibility, 1 = no effect.
Test [3] concerns Enterobacter aerogenes ATCC 13048. The test is described as above. In kind it is cell-based. Conditions: E. aerogenes ATCC 13048; MIC in the presence of 1.0% DMSO / MIC in the presence of 0.1 mM potentiator compound and 1.0% DMSO; positive = increased, negative = decreased susceptibility, 1 = no effect.
For test [4], the system named is A. baumannii ATCC 15308. Nature of the test: Broth microdilution MIC of other antibiotics with potentiator compounds (Example 2). In kind it is cell-based, Acinetobacter baumannii. The protocol: (§1) Following the procedure of Example 1, ciprofloxacin, amikacin, levofloxacin, tigecycline, imipenem and the combination trimethoprim/sulfamethoxasole (1:19) were tested. All were purchased from Sigma-Aldrich Co.
(§2) Minimal inhibitory concentration (MIC) of the antibiotic or the test combinations were determined by the broth microdilution method.
(§3) Antibiotic stock solutions were prepared according to CLSI recommendations and sterilizing by passage through 0.20 µm filters.
(§4) Antimicrobial susceptibility testing of these isolates was performed using the broth microdilution (BMD) method, according to CLSI guidelines.
(§5) The fold increase in bacterial susceptibility to antibiotics when combined with the potentiator compound (expressed as MIC in the presence of 1.0% DMSO / MIC in the presence of 0.1 mM of each potentiator compound and 1.0% DMSO) are shown in Table 4: […]

The subject of test [5] is S. maltophilia ATCC 13637. Described as above. In kind it is cell-based, Stenotrophomonas maltophilia. The procedure: as §1, §2, §3, §4, §5
Test [6] relates to P. aeruginosa ATCC 27853. Described as above. Format: cell-based, Pseudomonas aeruginosa. The conditions noted are these: any of ciprofloxacin, amikacin, levofloxacin, tigecycline, imipenem, TMP/SMX (1:19), 0.1 mM potentiator, 1.0% DMSO, 'none' = no antibiotic potentiated. The protocol: as §1, §2, §3, §4, §5
Test [7] has as its system S. maltophilia 197. Nature of the test: Colistin broth microdilution MIC with potentiator compounds, resistant clinical isolates (Example 3). Format: cell-based, Stenotrophomonas maltophilia. The procedure: (§6) The potentiator effect of the compound of the invention and other compounds disclosed herein was tested using colistin sulfate as antibiotic and in combination with the enhancer compounds in front of resistant clinical isolates.
(§7) Tests were performed to determine the potentiator effect of the compound of the invention and other compounds disclosed herein with multidrug-resistant S. maltophilia and A. baumannii clinical strains as shown in Table 5: TABLE 5
(§8) For this experiment the potentiator compound was added to a colistin broth microdilution assay at a final concentration of 0.1mM. MICs were determined as described in the Example 1.
(§9) Colistin minimal inhibitory concentration (MIC), expressed in µg/mL, and the fold increase in bacterial susceptibility to colistin when combined with the potentiator compound (expressed as MIC in the presence of 1.0% DMSO / MIC in the presence of 0.1 mM of each potentiator compound and 1.0% DMSO) are shown in Table 6: […]

The subject of test [8] is S. maltophilia 257. The description is as above. Format: cell-based, Stenotrophomonas maltophilia. Conditions: MIC in the presence of 1.0% DMSO / MIC in the presence of 0.1 mM compound and 1.0% DMSO, positive = increased susceptibility, 1 = no effect. The protocol:
as §6, §7, §8, §9

In test [9] the test system is S. maltophilia 53149. The description is as above. Format: cell-based, Stenotrophomonas maltophilia. The conditions noted are these: MIC in the presence of 1.0% DMSO / MIC in the presence of 0.1 mM compound and 1.0% DMSO, positive = increased susceptibility, 1 = no effect. The procedure:
as §6, §7, §8, §9

Test [10] concerns S. maltophilia D457. The description is as above. Format: cell-based, Stenotrophomonas maltophilia. Conditions: MIC in the presence of 1.0% DMSO / MIC in the presence of 0.1 mM compound and 1.0% DMSO, positive = increased susceptibility, 1 = no effect. The procedure: as §6, §7, §8, §9
Test [11] has as its system S. maltophilia M30. The test is described as above. In kind it is cell-based, Stenotrophomonas maltophilia. The procedure: as §6, §7, §8, §9
The test system of test [12] is S. maltophilia 257. Nature of the test: Broth microdilution MIC of other antibiotics with potentiator compounds, clinical isolates (Example 4). In kind it is cell-based, Stenotrophomonas maltophilia. The conditions noted are these: MIC in 1.0% DMSO / MIC with 0.1 mM compound and 1.0% DMSO. The procedure:
Following the procedure of Example 3, ciprofloxacin, amikacin, levofloxacin, imipenem and the combination trimethoprim/sulfamethoxasole (1:19) were tested. All were purchased from Sigma-Aldrich Co.
as §2, §3, §4
The fold increase in bacterial susceptibility to antibiotics when combined with the potentiator compound (expressed as MIC in the presence of 1.0% DMSO / MIC in the presence of 0.1 mM of each potentiator compound and 1.0% DMSO) are shown in Table 7: […]

For test [13], the system named is S. maltophilia K279a. Nature of the test: Colistin broth microdilution MIC with compound of formula I prepared in methanol or DMSO (Example 6). Format: cell-based, Stenotrophomonas maltophilia. The conditions noted are these: MIC in the presence of 1.0% DMSO / MIC in the presence of 0.1 mM of compound of formula I and 1.0% DMSO. The protocol:
(§10) The potentiator effect of the compound of the invention in a new formulation was tested by using colistin sulphate as antibiotic in combination with the enhancer compound of formula I in front of resistant clinical isolates. […]
(§11) Tests were performed to determine the potentiator effect of the compound of the invention with two colistin resistant S. maltophilia strains as shown in Table 9. S. maltophilia K279a is a reference clinical strain. The origin of clinical strain OC323 together with K279a has been described previously (Huedo et al., Two Different rpf Clusters Distributed among a Population of Stenotrophomonas maltophilia Clinical Strains Display Differential Diffusible Signal Factor Production and Virulence Regulation, J. Bacteriol., 2014, 196, 2431-2442).
(§12) Selected compound of formula I was first dissolved in 100% of Methanol (HPLC Gradient Grade CHROMASOLV. Sigma, 34885-1L-R) to 10 mM. The compound was fairly soluble in methanol up to 10 mM and required vigorous vortex.
(§13) […] MICs were determined as described in the Example 1.
(§14) Strains colistin minimal inhibitory concentration (MIC), expressed in µg/mL, and the fold increase in bacterial susceptibility to colistin when combined with the potentiator compound previously dissolved in methanol ([…]) are shown in Table 9: TABLE 9

In test [14] the test system is S. maltophilia OC323. The description is as above. In kind it is cell-based, Stenotrophomonas maltophilia. The conditions noted are these: MIC in the presence of 1.0% DMSO / MIC in the presence of 0.1 mM of compound of formula I and 1.0% DMSO. The protocol: as §10, §11, §12, §13, §14
Where [15] appears, read: MIC in 1.0% DMSO / MIC with 0.1 mM potentiator compound and 1.0% DMSO.
Setting [16] is: Trimethoprim:sulfamethoxazole 1:19, MIC in 1.0% DMSO / MIC with 0.1 mM potentiator compound and 1.0% DMSO.
Setting [17] is: MIC in the presence of 1.0% DMSO / MIC in the presence of 0.1 mM compound and 1.0% DMSO, positive = increased susceptibility, 1 = no effect.

With `CN(C)CCNC(=O)c1cccc(CNC(=O)Nc2ccc3c(c2)Cc2ccccc2-3)c1` [I, N-[2-(dimethylamino)ethyl]-3-[(9H-fluoren-2-ylcarbamoylamino)methyl]benzamide], the “Fold increase in bacterial susceptibility to colistin” value is reported as “+2 fold” in [1]; “+4 fold” in test [2]; “+2 fold” in [3]; “+32 fold” in test [7] (setting [17]); “+4 fold” in test [8]; “+4 fold” in test [9]. Besides, the “Fold increase in bacterial susceptibility to colistin” value in test [10] is reported as “+2 fold”; in [11] (setting [17]), “+8 fold”; in [13], “+4 fold”; in test [14], “+4 fold”. For the same compound, the “Fold increase in bacterial susceptibility to Imipenem” value in [4] (setting [15]) was determined as 2 fold. Moreover, the “Fold increase in bacterial susceptibility to Levofloxacin” value was 4 fold in test [4] (setting [15]), 2 fold in test [5] (setting [15]) and “Levofloxacin (2) fold” in [12]. Further, the “Fold increase in bacterial susceptibility to Tigecycline” value in test [4] (setting [15]) came out at 2 fold. The entries for the “Fold increase in bacterial susceptibility to TMP/SMX” value in [4] (setting [16]) and in test [5] (setting [16]) were 4 fold and 2 fold, respectively. In addition, the “Fold increase in bacterial susceptibility to Amikacin” value in test [5] (setting [15]) stood at 4 fold. The “Fold increase in bacterial susceptibility to Ciprofloxacin” value in test [5] (setting [15]) is given as 2 fold. Moreover, the “Fold increase in bacterial susceptibility to antibiotic indicated” value in [6] is “none”. For the same compound, the “Colistin susceptibility category according to the CLSI criteria in the presence of the compound” value in test [7] (0.1 mM compound) and in test [11] (0.1 mM compound) was “become sensitive to colistin” throughout.

Source of the values: patent publication EP3294317B1, “ENHANCED ANTIBIOTIC COMPOSITION” (Universitat Autònoma de Barcelona, priority 2015, dated 2016).
